Consider 87 compounds from a melting point compilation (Tetko et al.; mined from patent text by program, amines drawn as free bases though some values may be those of a salt).

Usually melting point stands for the temperature, or range, at which the solid turns liquid. `O=C(Nc1ccc2[nH]c(=O)sc2c1)C(=O)N1CCC(Oc2ccc(Cl)cc2)CC1` came in with a melting point of 245 to 247 °C.
The result for `O=P(c1ccccc1)(c1ccccc1)c1ccc(P(=O)(c2ccccc2)c2ccccc2)nn1` reads 248 to 252 °C; that for `COc1ccc(-n2nnnc2CC(=O)C(F)(F)F)cc1C=O`, 128 °C; that for `C=COCCONC(=O)c1cc(Cl)c(F)c(F)c1Nc1ccc(I)cc1F`, 119 to 120 °C.
The result for `Cc1cccc(C)c1NC(=S)C1(C)CCc2c(C)c(O)c(C)c(C)c2O1` (configuration not stated) reads 122 to 123 °C; that for `CCC(=O)NCCC1=CCC2=C1C1=C(CC2)OCCC1`, 85 to 88 °C; that for `N/C(=C1/Sc2ccccc2C1=O)c1ccccc1Br`, 143 to 144 °C.
The result for `O=C(c1n[nH]c2c(=O)[nH]c3cc(Cl)ccc3c(=O)c12)N1CCOCC1` reads 347 °C; that for `CCCCCCCCOC1(OC(=O)C2CCCO2)C=CC(c2ccccc2)=CC1` (configuration not stated), 119 °C; that for `Cc1oc(-c2ccco2)nc1COc1ccc(CCl)cc1Cl`, 103 to 104 °C.
In the case of `O=C(c1ccc(-c2ccc(C(CC3CCOCC3)c3ccc(S(=O)(=O)C4CC4)cc3)[nH]2)nc1)N1CCOCC1` (configuration not stated), the melting point fell in the range of 114 to 116 °C.
To `COC(=O)NC1=NCC(c2ccccc2Br)CN1` (configuration not stated) belongs 213 to 215 °C; to `Cn1cc(-c2ccc(C(=O)O)cc2)cn1`, 274 to 275 °C.
The result for `O=C(O)CCc1ccc2c(c1)OC[C@@H](Cc1ccccc1)[C@@H]2O` (relative stereo) reads 161 to 162 °C.
To `C#CCn1cc(Br)cnc1=O` belongs 139 to 141 °C; to `CCCCc1nc2c(N)nc3cccnc3c2n1CCCCNC(=O)CSc1ccncc1`, 128 to 129 °C; to `O=C1CCC(N2Cc3c(OCc4ccc(CN5CCOCC5)c(Cl)c4)cccc3C2=O)C(=O)N1` (configuration not stated), 240 to 242 °C.
On to `OC1c2ccc(OCc3ccccc3)cc2OCC1N1CCC(O)(c2ccc(F)cc2)CC1` (configuration not stated), for which the melting point lay within 194 to 195 °C.
In turn, `CC[C@@H]1C[C@H](NC(=O)OCc2ccccc2)c2cc(C(F)(F)F)ccc2N1` returned a melting point of 154 to 155 °C.
The result for `CCOC(=O)c1cn(C2CC2)c2cc(-n3cccc3)c(F)cc2c1=O` reads 216 to 219 °C.
The result for `CC(=O)SCCS(=O)(=O)N1CCC[C@H]1C(=O)OC(C)(C)C` reads 46 to 50 °C; that for `Cc1cccc(Nc2ccccc2C=NO)c1C`, 107 to 108 °C.
The result for `COc1ccc(C(=CNC(=O)c2sc3ccc(C(F)(F)F)cc3c2O)c2ccc(OC)cc2)cc1` reads 178 to 183 °C; that for `O=[N+]([O-])c1ccc2c(c1)C(c1ccccc1)=NCC(OP(=O)(N1CCOCC1)N1CCOCC1)=N2`, 208 to 209 °C.
With `CCOC(=O)C=Cc1ccc(N)c(O)c1`, the melting point is 134 to 135 °C.
`O=C(O)C1=Cc2cc(Cl)cc(Cl)c2OC1C(F)(F)F` (configuration not stated): the melting point fell in the range of 166 to 168 °C.
To `O=C1c2cccc3cccc(c23)C1Br` (configuration not stated) belongs 100 to 105 °C.
To `C=CCCC(C#N)(C#N)Cc1ccc(OCC(F)(F)F)cc1` belongs 58 °C.
To `O=[N+]([O-])c1ccc(/C=C/c2c(F)cccc2F)cc1` belongs 136 to 137 °C; to `CCOC(=O)c1c(C)c(C(=O)c2ccc(SC)n2C)n2c1C(C(=O)OCC)CC2` (configuration not stated), 142 to 143 °C; to `CCOC(=O)c1sc(SC)c2c1CCc1nc(C)oc1-2`, 131 to 132 °C.
As to `CC(=O)NCC1CC(c2ccc(C3=CCN(C(=O)OC(C)(C)C)CC3)cc2)=NO1` (configuration not stated), the melting point was 117 to 120 °C.
The result for `CC(=O)COc1cc2c(c(Cl)c1Cl)C(=O)C(C)(c1ccccc1)C2` (configuration not stated) reads 144 °C; that for `C=C(C)C(=O)OCCCCCCOc1ccc(C=Cc2ccc([N+](=O)[O-])cc2)cc1`, 90 to 95 °C.
Regarding `CC(C)(C)c1cc(-c2nn(CC(=O)O)c3ncccc23)cc(C(C)(C)C)c1O`, the melting point lay within 210 to 212 °C.
To `NC(=O)NCNC(N)=O` belongs greater than 270 °C.
To `CCOC(=O)/C=C/c1cnn(C)c1-c1cccnc1` belongs 159 to 160 °C.
To `O=C(O)Cc1cc(=O)[nH]c2ccccc12` belongs 213 to 215 °C.
`CC1(C)C=C(C(=O)c2ccc3c(c2)CCN(C(N)=O)C3)C(C)(C)CC1` returned a melting point of 78.6 to 79.7 °C.
To `COC(=O)C1=C(C)NC(C)=C(C(=O)OCCN2CCC(C(c3ccccc3)c3ccccc3)CC2)C1c1cccc([N+](=O)[O-])c1` (configuration not stated) belongs 82 to 85 °C; to `Cc1ccccc1C1CN(C(=O)OC(C)(C)C)CCC1=O` (configuration not stated), 97 to 99 °C; to `CCSc1nc2cccc(C(=O)OC)c2n1Cc1ccc(-c2ccccc2-c2nc(=O)o[nH]2)cc1`, 210 to 211 °C.
In turn, `CC(C)(C)OC(=O)NC(Cc1cc(C(=O)c2cc(C(F)(F)F)cc(C(F)(F)F)c2)ccc1N)C(=O)OC(C)(C)C` (configuration not stated) displayed a melting point of 134 to 135 °C.
To `CCOC(=O)NN(C)C(=O)Nc1ccc(OCc2ccc(Cl)cc2)cc1F` belongs 108 °C; to `N=C(OCC1CC1)N1CCC(c2nsc3ccccc23)CC1`, 85 to 87 °C.
To `CC=CCN(Cc1cc(C)ccc1C)c1ncnc2c1ncn2C1OC(CO)C(O)C1O` (configuration not stated) belongs 125 to 127 °C.
As to `C=C(C)C(=O)Oc1ccc(S(=O)(=O)NC)cc1`, the melting point lay within 106 to 107 °C.
To `N#Cc1cc(-c2ccncc2)c[nH]c1=O` belongs greater than 300 °C.
The result for `CCCS(=O)(=O)NC(=O)C[C@H]1O[C@H](c2cccc(OC)c2OC)c2cc(Cl)ccc2N(CC(C)(C)CO)C1=O` reads 135 to 137 °C; that for `O=C1NC(=O)C2(N1)C(=O)N(Cc1ccc(Br)cc1F)c1c(C(F)(F)F)cccc12` (configuration not stated), 197 to 199 °C; that for `CC=CCONC(C)=C1C(=O)CC(CCSc2ccc(C(F)(F)F)cc2)CC1=O` (configuration not stated), 72 to 73 °C.
To `CO/C=C(\Oc1cc(C#C[Si](C)(C)C)ccc1C)C(=O)OC` belongs 125 °C; to `COc1cccc(C2=C(CC(C)N3CCCC3)C(=O)NCCC2)c1` (configuration not stated), 94 to 96 °C; to `CC(C)COc1ccc(Br)cc1N(Cc1ccc(N(C)C)cc1)C(=O)C1CCCc2ccccc21` (configuration not stated), 176 to 178 °C.
In turn, `CCCc1c(SCCCCSc2nc3ccc(C(=O)O)cc3[nH]2)ccc(C(C)=O)c1O` returned a melting point of 90 to 95 °C.
Regarding `COc1ccc(-c2cnc(C(N)=O)nc2)cc1OC1CCCC1`, the melting point lay in the range of 235 to 238 °C.
The result for `COCOc1nn(-c2ccccc2)cc1/C=C/c1csc(-c2ccccc2C(=O)OC)n1` reads 134 to 135 °C; that for `COC(=O)c1ccc(S(C)(=O)=O)c(COc2ccnn2C)c1Cl`, 70 °C; that for `COC(CN(C)C(=O)Nc1nnc(C(C)Oc2ccc(Cl)cc2Cl)s1)OC` (configuration not stated), 125 to 127 °C.
`c1ccc2c(Sc3c4ccccc4cc4ccccc34)c3ccccc3cc2c1`: the melting point stood at 257 °C.
To `CCOC(=O)C1=C(C)NC(C)=C(C(=O)OCC)C1c1ccccc1/C=C(\C)C(=O)O` belongs 205 to 207 °C; to `Cc1cc(CCC(=O)c2ccc(-c3ccc(C(F)(F)F)cc3)s2)cc(C)c1OC(C)(C)C(=O)O`, 157 to 158 °C; to `CC(C)(C)OC(=O)N1CCC(Oc2ccc(-c3ccc(=O)[nH]n3)c(F)c2)CC1`, 117 to 119 °C.
The result for `CC(=O)C1CCC2C3CCC4CC=CCC4(C)C3C(N)CC12C` (configuration not stated) reads 127 to 129 °C; that for `CCCCCCCCCCCCCc1c[nH]c(C(=O)OC)c1`, 80 to 82 °C; that for `Cn1cccc1C(=O)NCc1cccc2c1C(=O)N(C1CCC(=O)NC1=O)C2=O` (configuration not stated), greater than 260 °C.
To `COc1ccc(Cc2n[nH]c3c2c(=O)n(-c2ccccc2)c2ncccc32)cc1` belongs 300 to 302 °C; to `N#CC1=C(c2cccs2)Nc2n[nH]cc2C1c1cccc2ccccc12` (configuration not stated), 214 °C; to `Cc1cccc(CO)c1Cl`, 63 to 64 °C.
`CC(C)N(CCc1c[nH]c2cc(Cl)ccc12)Cc1cccc(OCC(F)(F)C(F)(F)F)c1` registered a melting point of 77 to 80.2 °C.
To `COc1ccc(CS[C@H]2C[C@@H](C(N)=O)N(CCF)C2)cc1` belongs 122 to 123 °C.
To `CC(C)(CO)Nc1nc(Nc2cccc(NS(C)(=O)=O)c2)nc2[nH]cnc12` belongs 215 to 218 °C.
Regarding `O=C(Nc1nccs1)c1nc(-c2ccc(CN3CCOCC3)cc2)[nH]c1-c1ccc(Cl)cc1`, the melting point fell in the range of 253 to 255 °C.
The compound `NC(=O)c1ccccc1NC(=O)c1ccc(Cl)cc1` had a melting point of 205 to 207 °C.
In the case of `COc1cc(I)c(C(C)=NOCc2ccc([N+](=O)[O-])cc2)cc1O`, the melting point was 121 to 127 °C.
To `COC(=O)CCCNC(=O)CCCN(C(=O)c1cc(OC)c(OC)c(OC)c1)c1c(C)cccc1C` belongs 97 to 99 °C.
With `COC(=O)C1=C(C)NC(C)=C(C(=O)OCCN2CCN(C(c3ccccc3)c3ccccc3)CC2)C1c1cccc(Cl)c1` (configuration not stated), the melting point was 74 to 80 °C.
The result for `COc1cccc(C2=C(C#N)C(c3ccccc3OC)c3c[nH]nc3N2)c1` (configuration not stated) reads 192 °C.
The result for `Nc1cnccc1C(=O)Nc1ccc(-n2nc(C(F)(F)F)cc2C(F)(F)F)cc1` reads 101 to 102 °C; that for `Cc1cc(Oc2cccc(C(F)(F)F)c2)nn1C(=O)Nc1ccc(Cl)cc1Cl`, 113 to 114 °C.
The result for `O=C1NC(=O)C(c2cn3c4c(cccc24)CCC3)=C1c1ccc(F)cc1` reads 234 to 235 °C; that for `CC(C)n1c(=O)c2ccccc2n(SC(Cl)(Cl)Cl)c1=O`, 105 to 106 °C; that for `CN(C)c1ccccc1CS(=O)c1nc2c(n1-c1ccccn1)CCC2` (configuration not stated), 140 to 141 °C.
As to `CCN1CCN(c2ccc(-c3[nH]nc4c3C(=O)c3c(NC(=O)NN5CCOCC5)cccc3-4)cc2)CC1`, the melting point was determined as 245 °C.
`CC(=O)N1CCCCc2ccc(C(=O)CCN(C)C)cc21` gave a melting point of 68 to 70 °C.
`Cn1nc(COc2ccc(C=O)cc2)c2ccccc2c1=O` displayed a melting point of 168 to 170 °C.
To `N=C(Cc1ccccc1)Nc1ncccc1OCc1ccccc1` belongs 114 to 116 °C.
